{"source": "ChEMBL document CHEMBL1926545", "about": "“The 2,11-cyclized cembranoids: cladiellins, asbestinins, and briarellins (period 1998-2010)” (J Nat Prod, 2011)", "key": {"[1]": {"system": "A549", "test": "Cytotoxicity against human A549 cells", "type": "functional, cell-based"}, "[2]": {"system": "HepG2", "test": "Cytotoxicity against human HepG2 cells", "type": "functional, cell-based"}, "[3]": {"test": "Cytotoxicity against human Hep3B cells", "type": "functional, cell-based, Hep 3B2"}, "[4]": {"system": "Ca9-22", "test": "Cytotoxicity against human Ca9-22 cells", "type": "functional, cell-based"}, "[5]": {"system": "MDA-MB-231", "test": "Cytotoxicity against human MDA-MB-231 cells", "type": "functional, cell-based"}, "[6]": {"system": "MCF7", "test": "Cytotoxicity against human MCF7 cells", "type": "functional, cell-based"}, "[7]": {"system": "RAW264.7", "test": "Antiinflammatory activity in […] RAW264.7 cells assessed as LPS-induced iNOS expression at 10 uM", "type": "functional"}, "[8]": {"system": "RAW264.7", "test": "Antiinflammatory activity in […] RAW264.7 cells assessed as LPS-induced COX-2 expression at 10 uM", "type": "functional"}, "[9]": {"test": "Cytostatic activity against human NSCLC-N6 cells", "type": "functional, cell-based"}, "[10]": {"system": "L1210", "test": "Cytotoxicity against mouse L1210 cells", "type": "functional, cell-based"}, "[11]": {"details": "Homo sapiens, A549, read-out: IC50"}, "[12]": {"details": "Homo sapiens, HepG2, read-out: IC50"}, "[13]": {"details": "Homo sapiens, Hep3B, read-out: IC50"}, "[14]": {"details": "Homo sapiens, Ca9-22, read-out: IC50"}, "[15]": {"details": "Homo sapiens, MDA-MB-231, read-out: IC50"}, "[16]": {"details": "Homo sapiens, MCF7, read-out: IC50"}}, "note": "Activity calls are given as the source filed them. The rule behind the calls is not given here.", "data": [{"smiles": "CCCC(=O)O[C@]1(C)CC[C@H](O)[C@@H](C)C[C@H]2O[C@@H]1[C@@H]1[C@@H](C(C)C)[C@H](O)C[C@@](C)(OC(C)=O)[C@@H]12", "note": "[KLYSIMPLEXIN A]", "values": [{"measurement": "IC50", "setting": "[1]; a549", "result": "Not Active"}, {"measurement": "IC50", "setting": "[2]; hepg2", "result": "Not Active"}, {"measurement": "IC50", "setting": "[3]; hep 3b2", "result": "Not Active"}, {"measurement": "IC50", "setting": "[4]; ca9-22", "result": "Not Active"}, {"measurement": "IC50", "setting": "[5]; mda-mb-231", "result": "Not Active"}, {"measurement": "IC50", "setting": "[6]; mcf7", "result": "Not Active"}]}, {"smiles": "C=C1C[C@H]2O[C@H]([C@@H]3[C@@H](C(C)C)[C@H](O)C[C@@](C)(OC(C)=O)[C@@H]32)[C@](C)(OC(=O)CCC)CCC1=O", "note": "[KLYSIMPLEXIN B]", "values": [{"measurement": "IC50", "setting": "[1]; [11]", "result": 4.3, "unit": "µM"}, {"measurement": "IC50", "setting": "[2]; [12]", "result": 6.4, "unit": "µM"}, {"measurement": "IC50", "setting": "[3]; [13]", "result": 7.8, "unit": "µM"}, {"measurement": "IC50", "setting": "[4]; [14]", "result": 3.9, "unit": "µM"}, {"measurement": "IC50", "setting": "[5]; [15]", "result": 15, "unit": "µM"}, {"measurement": "IC50", "setting": "[6]; [16]", "result": 6.5, "unit": "µM"}]}, {"smiles": "C=C1C[C@H]2O[C@H]([C@@H]3[C@@H](C(C)C)[C@H](O)C[C@@](C)(OC(C)=O)[C@@H]32)[C@](C)(OC(=O)CCC)CC[C@@H]1O", "note": "[KLYSIMPLEXIN C]", "values": [{"measurement": "IC50", "setting": "[1]; a549", "result": "Not Active"}, {"measurement": "IC50", "setting": "[2]; hepg2", "result": "Not Active"}, {"measurement": "IC50", "setting": "[3]; hep 3b2", "result": "Not Active"}, {"measurement": "IC50", "setting": "[4]; ca9-22", "result": "Not Active"}, {"measurement": "IC50", "setting": "[5]; mda-mb-231", "result": "Not Active"}, {"measurement": "IC50", "setting": "[6]; mcf7", "result": "Not Active"}]}, {"smiles": "C=C1C[C@H]2O[C@H]([C@@H]3[C@@H](C(C)C)[C@H](O)C[C@@](C)(OC(C)=O)[C@@H]32)[C@](C)(OC(=O)CCC)CC[C@@H]1OO", "note": "[KLYSIMPLEXIN D]", "values": [{"measurement": "IC50", "setting": "[1]; a549", "result": "Not Active"}, {"measurement": "IC50", "setting": "[2]; hepg2", "result": "Not Active"}, {"measurement": "IC50", "setting": "[3]; hep 3b2", "result": "Not Active"}, {"measurement": "IC50", "setting": "[4]; ca9-22", "result": "Not Active"}, {"measurement": "IC50", "setting": "[5]; mda-mb-231", "result": "Not Active"}, {"measurement": "IC50", "setting": "[6]; mcf7", "result": "Not Active"}]}, {"smiles": "C=C1C[C@H]2O[C@H]([C@@H]3[C@@H](C(C)C)[C@H](O)C[C@@](C)(OC(C)=O)[C@@H]32)[C@](C)(OC(C)=O)CC[C@@H]1O", "note": "[KLYSIMPLEXIN E]", "values": [{"measurement": "IC50", "setting": "[1]; a549", "result": "Not Active"}, {"measurement": "IC50", "setting": "[2]; hepg2", "result": "Not Active"}, {"measurement": "IC50", "setting": "[3]; hep 3b2", "result": "Not Active"}, {"measurement": "IC50", "setting": "[4]; ca9-22", "result": "Not Active"}, {"measurement": "IC50", "setting": "[5]; mda-mb-231", "result": "Not Active"}, {"measurement": "IC50", "setting": "[6]; mcf7", "result": "Not Active"}]}, {"smiles": "CCCC(=O)O[C@]1(C)CC[C@H](O)[C@@](C)(O)C[C@H]2O[C@@H]1[C@@H]1[C@@H](C(C)C)[C@H](O)C[C@@](C)(OC(C)=O)[C@@H]12", "note": "[KLYSIMPLEXIN F]", "values": [{"measurement": "IC50", "setting": "[1]; a549", "result": "Not Active"}, {"measurement": "IC50", "setting": "[2]; hepg2", "result": "Not Active"}, {"measurement": "IC50", "setting": "[3]; hep 3b2", "result": "Not Active"}, {"measurement": "IC50", "setting": "[4]; ca9-22", "result": "Not Active"}, {"measurement": "IC50", "setting": "[5]; mda-mb-231", "result": "Not Active"}, {"measurement": "IC50", "setting": "[6]; mcf7", "result": "Not Active"}]}, {"smiles": "CC(=O)O[C@]1(C)CC[C@H](C(C)C)[C@@H]2[C@H]1[C@H]1C[C@](C)(O)[C@@H](O)CC[C@@](C)(OC(C)=O)[C@@H]2O1", "note": "[KLYSIMPLEXIN G]", "values": [{"measurement": "IC50", "setting": "[1]; a549", "result": "Not Active"}, {"measurement": "IC50", "setting": "[2]; hepg2", "result": "Not Active"}, {"measurement": "IC50", "setting": "[3]; hep 3b2", "result": "Not Active"}, {"measurement": "IC50", "setting": "[4]; ca9-22", "result": "Not Active"}, {"measurement": "IC50", "setting": "[5]; mda-mb-231", "result": "Not Active"}, {"measurement": "IC50", "setting": "[6]; mcf7", "result": "Not Active"}]}, {"smiles": "CCCC(=O)O[C@H]1[C@H](C(C)C)[C@@H]2[C@@H]([C@H]3/C=C(/C)[C@@H](O)CC[C@@](C)(OC(=O)CCC)[C@@H]2O3)[C@](C)(O)[C@@H]1OC(C)=O", "note": "[KLYSIMPLEXIN H]", "values": [{"measurement": "IC50", "setting": "[1]; [11]", "result": 5.1, "unit": "µM"}, {"measurement": "IC50", "setting": "[2]; [12]", "result": 10, "unit": "µM"}, {"measurement": "IC50", "setting": "[3]; [13]", "result": 13, "unit": "µM"}, {"measurement": "IC50", "setting": "[4]; [14]", "result": 11, "unit": "µM"}, {"measurement": "IC50", "setting": "[5]; [15]", "result": 8, "unit": "µM"}, {"measurement": "IC50", "setting": "[6]; [16]", "result": 10, "unit": "µM"}]}, {"smiles": "CCCC(=O)O[C@]1(C)CCC[C@@](C)([S+](C)[O-])C[C@H]2O[C@@H]1[C@H]1[C@@H]2[C@](C)(OC(C)=O)CC[C@@H]1C(C)C", "note": "(stereo partly drawn) [KLYSIMPLEXIN SULFOXIDE A]", "values": [{"measurement": "Activity", "setting": "[7]", "result": 8.8, "unit": "%"}, {"measurement": "Activity", "setting": "[8]", "result": "inactive"}]}, {"smiles": "CCCC(=O)O[C@H]1[C@H](C(C)C)[C@@H]2[C@@H]([C@H]3C[C@](C)([S+](C)[O-])CCC[C@@](C)(OC(=O)CCC)[C@@H]2O3)[C@](C)(O)[C@@H]1OC(C)=O", "note": "(stereo partly drawn) [KLYSIMPLEXIN SULFOXIDE B]", "values": [{"measurement": "Activity", "setting": "[7]", "result": 18, "unit": "%"}, {"measurement": "Activity", "setting": "[8]", "result": "inactive"}]}, {"smiles": "C=C1C[C@H]2O[C@H]([C@@H]3[C@@H](C(C)C)[C@H](OC(=O)CC[S+](C)[O-])[C@@H](OC(C)=O)[C@@](C)(O)[C@@H]32)[C@](C)(OC(=O)CCC)CC[C@@H]1O", "note": "(stereo partly drawn) [KLYSIMPLEXIN SULFOXIDE C]", "values": [{"measurement": "Activity", "setting": "[7]", "result": 11, "unit": "%"}, {"measurement": "Activity", "setting": "[8]", "result": 7.2, "unit": "%"}]}, {"smiles": "C=C1C[C@@H]2O[C@@H]([C@@H]3[C@H]2[C@@](C)(OC(C)=O)[C@H](OC(C)=O)C[C@H]3C(C)C)[C@@](C)(OC(C)=O)CC[C@H]1O", "note": "[LABIATIN C]", "values": [{"measurement": "IC50", "setting": "[9]", "result": 16, "unit": "µM"}]}, {"smiles": "C=C1C[C@H]2O[C@H]([C@H]3[C@@H]2[C@](C)(OC(C)=O)[C@@H](OC(C)=O)C[C@@H]3C(C)C)[C@](C)(OC(C)=O)CC[C@@H]1O", "note": "[LABIATIN E]", "values": [{"measurement": "IC50", "setting": "[9]", "result": 73, "unit": "µM"}]}, {"smiles": "C=C1CC[C@H](C(C)C)[C@@H]2[C@H]1[C@H]1C[C@](C)(O)[C@@H](O)CC[C@@](C)(O)[C@@H]2O1", "note": "[SCLEROPHYTIN A]", "values": [{"measurement": "IC50", "setting": "[10]", "result": 3, "unit": "nM"}, {"measurement": "IC50", "setting": "[1]; [11]", "result": 57, "unit": "µM"}]}]}
